# Several values for one entry are separate records, joined by “and”; a condition that tells them apart may be missing. Equal entries are not always repeated.
# Experiments:
# monochoria (Mo) [1] = assay: Test Example 1: herbicidal effects by flooded paddy field treatment; type: in vivo; design: herbicidal effects, Mo (monochoria):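 0-5 growth inhibition grade; 5 = over 90%; 4 = 70-90%; 3 = 50-70%; 2 = 30-50%; 1 = 10-30%; 0 = under 10%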; details: for herbicidal effects, Mo (monochoria): dose 100 g active ingredient per 10 ares, examined on the 21st day after treatment, standards of Table 44; for Herbicidal effect index, Mo: dose 100 gai/10a, examined on 21st day after treatment, index 0-5 per Table 44;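 on Herbicidal effect index, Mo: 0-5 growth inhibition grade; 5 = over 90%; 4 = 70-90%; 3 = 50-70%; 2 = 30-50%; 1 = 10-30%; 0 = under 10%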
# In short: (§1)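 Pots hold puddled paddy soil; seeds are sown and the pots flooded 3 cm deep. Next day, diluted wettable powder goes dropwise onto the water at a dose of 100 g active ingredient per 10 ares, and herbicidal effects are rated after 21 days in a greenhouse.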
# barnyard grass (Ec) [2] = assay: Test Example 2: herbicidal effects by upland soil treatment; type: in vivo; design: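 0-5 growth inhibition grade; 5 = over 90%; 4 = 70-90%; 3 = 50-70%; 2 = 30-50%; 1 = 10-30%; 0 = under 10%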; details: dose 100 g active ingredient per 10 ares, examined on the 21st day after treatment; for herbicidal effects, Ec (barnyard grass): standards of Table 44
# In short: (§2)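 Pre-emergence test: barnyard grass and green foxtail sown in upland soil, then soil surface sprayed with wettable-powder formulation at 100 g active ingredient per 10 ares (100 l per 10 ares). Grown in greenhouse; herbicidal effect scored on a rating scale 21 days after treatment.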
# barnyard grass (Ec) [3] = assay: Test Example 3: herbicidal effects by foliage treatment in upland field; type: in vivo; design: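 0-5 growth inhibition grade; 5 = over 90%; 4 = 70-90%; 3 = 50-70%; 2 = 30-50%; 1 = 10-30%; 0 = under 10%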; details: dose 100 g active ingredient per 10 ares, examined on the 14th day after treatment
# In short: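 Barnyard grass and green foxtail were grown in upland soil for 2 weeks in a greenhouse. A water-diluted wettable powder was sprayed over the foliage at 100 l per 10 ares, giving 100 g active ingredient per 10 ares. Herbicidal effect was scored on day 14 after treatment.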
# barnyard grass (Eo) [4] = assay: Test Example 1: herbicidal effects by flooded paddy field treatment; type: in vivo; design: herbicidal effects, Eo (barnyard grass):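 0-5 growth inhibition grade; 5 = over 90%; 4 = 70-90%; 3 = 50-70%; 2 = 30-50%; 1 = 10-30%; 0 = under 10%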; details: for herbicidal effects, Eo (barnyard grass): dose 100 g active ingredient per 10 ares, examined on the 21st day after treatment, standards of Table 44; for Herbicidal effect index, Eo: dose 100 gai/10a, examined on 21st day after treatment, index 0-5 per Table 44;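 on Herbicidal effect index, Eo: 0-5 growth inhibition grade; 5 = over 90%; 4 = 70-90%; 3 = 50-70%; 2 = 30-50%; 1 = 10-30%; 0 = under 10%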
# In short: as §1
# rice (Or) = assay: Test Example 4: selectivity for a crop plant by flooded paddy field treatment; type: in vivo; design: scale not given here; details: rice transplanted at second leaf stage; for Or (herbicidal effect index on crop): dose 25 gai/10a, 21st day after treatment, index per Table 44; for Or (effect on crop plant rice, index): dose 25 g active ingredient per 10 ares, examined on the 21st day after treatment
# In short: (§3)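 Rice at the second-leaf stage is transplanted into puddled, 3 cm-flooded paddy soil alongside sown weed seeds, and a diluted wettable powder is dripped onto the water surface the following day at 25 g a.i./10 ares. Effects are rated 21 days later.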
# monochoria (Mo) [5] = assay: as above; type: in vivo; design: scale not given here; details: for Mo (herbicidal effect index): monochoria, dose 25 gai/10a, 21st day after treatment, index per Table 44; for Mo (herbicidal effects, index): dose 25 g active ingredient per 10 ares, examined on the 21st day after treatment
# In short: as §3
# barnyard grass (Eo) [6] = assay: as above; type: in vivo; design: scale not given here; details: for Eo (herbicidal effect index): barnyard grass, dose 25 gai/10a, 21st day after treatment, index per Table 44; for Eo (herbicidal effects, index): dose 25 g active ingredient per 10 ares, examined on the 21st day after treatment
# In short: as §3
# green foxtail (Se) = assay: Test Example 2: herbicidal effects by upland soil treatment; type: in vivo; details: dose 100 g active ingredient per 10 ares, examined on the 21st day after treatment, standards of Table 44;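 further: 0-5 growth inhibition grade; 5 = over 90%; 4 = 70-90%; 3 = 50-70%; 2 = 30-50%; 1 = 10-30%; 0 = under 10%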
# In short: as §2
# barnyard grass (Ec) [7] = assay: Test Example 5: selectivity for a crop plant by soil treatment in upland field; type: in vivo; design: scale not given here; details: dose 25 gai/10a, 21st day after treatment, index per Table 44
# In short: (§4)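 Upland soil in pots was sown with barnyard grass, green foxtail, soybean, wheat and corn. A diluted wettable powder was sprayed onto the soil surface (100 l per 10 ares) at 25 g active ingredient per 10 ares. Herbicidal effect was scored against a rating standard 21 days after treatment, with plants grown in a greenhouse.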
# soybean (G1) = assay: as above; type: in vivo; design: scale not given here; details: dose 25 gai/10a, 21st day after treatment, index per Table 44
# In short: as §4
# wheat (Tr) = assay: as above; type: in vivo; design: scale not given here; details: dose 25 gai/10a, 21st day after treatment, index per Table 44
# In short: as §4
# corn (Ze) = assay: as above; type: in vivo; design: scale not given here; details: dose 25 gai/10a, 21st day after treatment, index per Table 44
# In short: as §4
smiles,measurement,setting,value
"CC(C)C(c1cncnc1C#N)N(C)C(=O)Cc1ccccc1 (stereo not drawn) [Compound 1-504, N-[1-(4-cyanopyrimidin-5-yl)-2-methylpropyl]-N-methylphenylacetamide]","herbicidal effects, Mo (monochoria)",monochoria (Mo) [1],5
same,"Ec (herbicidal effects, index)",barnyard grass (Ec) [2],5
same,"Ec (herbicidal effects, index)",barnyard grass (Ec) [3],5
same,"herbicidal effects, Eo (barnyard grass)",barnyard grass (Eo) [4],5
same,melting point,,80 to 81 °C
same,Or (herbicidal effect index on crop),rice (Or),1
same,Mo (herbicidal effect index),monochoria (Mo) [5],5
same,Eo (herbicidal effect index),barnyard grass (Eo) [6],5
"CC(C)C(c1cncnc1C(F)(F)F)N(C)C(=S)Cc1ccccc1 (stereo not drawn) [Compound 1-142, N-methyl-N-[2-methyl-1-(4-trifluoromethylpyrimidin-5-yl)propyl]phenylthioacetamide]","herbicidal effects, Se (green foxtail)",green foxtail (Se),5
same,"herbicidal effects, Mo (monochoria)",monochoria (Mo) [1],5
same,"herbicidal effects, Ec (barnyard grass)",barnyard grass (Ec) [2],5
same,"Ec (herbicidal effects, index)",barnyard grass (Ec) [3],4
same,"herbicidal effects, Eo (barnyard grass)",barnyard grass (Eo) [4],5
same,melting point,,93 to 94 °C
"CC(C(=O)N(C)C(c1cncnc1C(=O)O)C(C)C)c1ccc(Cl)cc1 (single isomer, unassigned) [Compound 1-718, 5-(1-{[2-(4-chlorophenyl)-propionyl]methylamino}-2-methylpropyl)-pyrimidine-4-carboxylic acid]",melting point,,168 to 170 °C
"COCN(C(=O)Cc1ccc(Cl)cc1)C(c1cncnc1C(F)(F)F)C(C)C (stereo not drawn) [Compound 1-105, N-methoxymethyl-N-[2-methyl-1-(4-trifluoromethylpyrimidin-5-yl)propyl]-4-chlorophenylacetamide]","herbicidal effects, Se (green foxtail)",green foxtail (Se),5
same,"Herbicidal effect index, Mo",monochoria (Mo) [1],5
same,"herbicidal effects, Ec (barnyard grass)",barnyard grass (Ec) [2],5
same,"Herbicidal effect index, Eo",barnyard grass (Eo) [4],5
same,melting point,,142 to 145 °C
"CC(C)C(c1cncnc1C(F)(F)F)N(C)C(=O)Cc1ccccc1 (stereo not drawn) [Compound 1-8, N-methyl-N-[2-methyl-1-(4-trifluoromethylpyrimidin-5-yl)propyl]phenylacetamide]","herbicidal effects, Se (green foxtail)",green foxtail (Se),5
same,"Herbicidal effect index, Mo",monochoria (Mo) [1],5
same,"herbicidal effects, Ec (barnyard grass)",barnyard grass (Ec) [2],5
same,"Ec (herbicidal effects, index)",barnyard grass (Ec) [3],5
same,"Herbicidal effect index, Eo",barnyard grass (Eo) [4],5
same,melting point,,106 to 109 °C
"CC(C)C(c1cncnc1C=NO)N(C)C(=O)Cc1ccccc1 (stereo not drawn) [Compound 1-500, N-[1-(4-hydroxyiminomethylpyrimidin-5-yl)-2-methylpropyl]-N-methylphenylacetamide]","herbicidal effects, Mo (monochoria)",monochoria (Mo) [1],5
same,"herbicidal effects, Eo (barnyard grass)",barnyard grass (Eo) [4],5
same,melting point,,171 to 172 °C
"CC(C)C(c1cncnc1C(F)(F)F)N(C)C(=O)Cc1ccccn1 (stereo not drawn) [Compound 2-3, N-methyl-N-[2-methyl-1-(4-trifluoromethylpyrimidin-5-yl)propyl]-2-pyridylacetamide]","herbicidal effects, Mo (monochoria)",monochoria (Mo) [1],5
same,"herbicidal effects, Eo (barnyard grass)",barnyard grass (Eo) [4],5
same,melting point,,99 to 100 °C
CCN(C(=O)Cc1ccc(C#N)cc1)C(c1cncnc1C(F)(F)F)C(C)C (racemic) [Compound 1-98],"herbicidal effects, Se (green foxtail)",green foxtail (Se),5
same,"Herbicidal effect index, Mo",monochoria (Mo) [1],5
same,"herbicidal effects, Ec (barnyard grass)",barnyard grass (Ec) [2],5
same,"Ec (herbicidal effects, index)",barnyard grass (Ec) [3],4
same,"Herbicidal effect index, Eo",barnyard grass (Eo) [4],5
same,Ec (herbicidal effect index),barnyard grass (Ec) [7],4
same,Gl (herbicidal effect index on crop),soybean (G1),0
same,Tr (herbicidal effect index on crop),wheat (Tr),1
same,Ze (herbicidal effect index on crop),corn (Ze),1
same,"Or (effect on crop plant rice, index)",rice (Or),1
same,"Mo (herbicidal effects, index)",monochoria (Mo) [5],5
same,"Eo (herbicidal effects, index)",barnyard grass (Eo) [6],5
"CC(C)C(c1cncnc1C(F)(F)F)N(C)C(=O)N(C)Cc1ccc(Cl)cc1 (stereo not drawn) [Compound 1-532, 1-(4-chlorobenzyl)-1,3-dimethyl-3-[2-methyl-1-(4-trifluoromethyl-pyrimidin-5-yl)-propyl]-urea]","herbicidal effects, Mo (monochoria)",monochoria (Mo) [1],5
same,"Ec (herbicidal effects, index)",barnyard grass (Ec) [2],5
same,"Ec (herbicidal effects, index)",barnyard grass (Ec) [3],5
same,"herbicidal effects, Eo (barnyard grass)",barnyard grass (Eo) [4],5
same,melting point,,95 to 98 °C and 95 to 96 °C
same,Or (herbicidal effect index on crop),rice (Or),1
same,Mo (herbicidal effect index),monochoria (Mo) [5],5
same,Eo (herbicidal effect index),barnyard grass (Eo) [6],5
CCC(C)C(c1cncnc1C(F)(F)F)N(C)C(=O)Cc1ccc(Cl)cc1 (mixture of isomers) [Compound 1-59],"herbicidal effects, Se (green foxtail)",green foxtail (Se),5
same,"Herbicidal effect index, Mo",monochoria (Mo) [1],5
same,"herbicidal effects, Ec (barnyard grass)",barnyard grass (Ec) [2],5
same,"Ec (herbicidal effects, index)",barnyard grass (Ec) [3],4
same,"Herbicidal effect index, Eo",barnyard grass (Eo) [4],5
same,Ec (herbicidal effect index),barnyard grass (Ec) [7],5
same,Gl (herbicidal effect index on crop),soybean (G1),0
same,Tr (herbicidal effect index on crop),wheat (Tr),1
same,Ze (herbicidal effect index on crop),corn (Ze),0
same,"Or (effect on crop plant rice, index)",rice (Or),0
same,"Mo (herbicidal effects, index)",monochoria (Mo) [5],5
same,"Eo (herbicidal effects, index)",barnyard grass (Eo) [6],5
Cc1ccccc1CC(=O)N(C)C(c1cncnc1C(F)(F)F)C(C)C (racemic) [Compound 1-50],"herbicidal effects, Se (green foxtail)",green foxtail (Se),5
same,"Herbicidal effect index, Mo",monochoria (Mo) [1],5
same,"herbicidal effects, Ec (barnyard grass)",barnyard grass (Ec) [2],5
same,"Ec (herbicidal effects, index)",barnyard grass (Ec) [3],4
same,"Herbicidal effect index, Eo",barnyard grass (Eo) [4],5
same,Ec (herbicidal effect index),barnyard grass (Ec) [7],4
same,Gl (herbicidal effect index on crop),soybean (G1),3
same,Tr (herbicidal effect index on crop),wheat (Tr),3
same,Ze (herbicidal effect index on crop),corn (Ze),0
same,"Or (effect on crop plant rice, index)",rice (Or),1
same,"Mo (herbicidal effects, index)",monochoria (Mo) [5],5
same,"Eo (herbicidal effects, index)",barnyard grass (Eo) [6],5
CC(C)C(c1cncnc1C1CC1)N(C)C(=O)Cc1ccc(Cl)cc1 (racemic) [Compound 1-78],"herbicidal effects, Se (green foxtail)",green foxtail (Se),5
same,"Herbicidal effect index, Mo",monochoria (Mo) [1],5
same,"herbicidal effects, Ec (barnyard grass)",barnyard grass (Ec) [2],5
same,"Ec (herbicidal effects, index)",barnyard grass (Ec) [3],5
same,"Herbicidal effect index, Eo",barnyard grass (Eo) [4],5
same,Ec (herbicidal effect index),barnyard grass (Ec) [7],5
same,Gl (herbicidal effect index on crop),soybean (G1),0
same,Tr (herbicidal effect index on crop),wheat (Tr),1
same,Ze (herbicidal effect index on crop),corn (Ze),0
same,"Or (effect on crop plant rice, index)",rice (Or),1
same,"Mo (herbicidal effects, index)",monochoria (Mo) [5],5
same,"Eo (herbicidal effects, index)",barnyard grass (Eo) [6],5
"CC(C)C(c1cncnc1C(F)(F)F)N(C)C(=O)N(C)c1ccccc1 (stereo not drawn) [Compound 1-424, 1,3-dimethyl-1-[2-methyl-1-(4-trifluoromethyl-pyrimidin-5-yl)-propyl]-3-phenylurea]","herbicidal effects, Mo (monochoria)",monochoria (Mo) [1],5
same,"Ec (herbicidal effects, index)",barnyard grass (Ec) [2],5
same,"Ec (herbicidal effects, index)",barnyard grass (Ec) [3],4
same,"herbicidal effects, Eo (barnyard grass)",barnyard grass (Eo) [4],5
same,melting point,,104 to 105 °C
